Here are results for 26 compounds from patent US6391902B1, “Substituted benzofuranoindoles and indenoindoles as novel potassium channel openers” (American Home Products Corporation, priority 1998, dated 2002).

Marks after values point to notes of the source that are not given here. Some results are limits rather than exact numbers.

One data set deals with Bladder Tissue. Briefly: Relaxation of KCl-stimulated isolated rat bladder strips (contractile activity). The arrangement: species or system Sprague-Dawley rats. The settings on record: for inhibition at 30 µM: read-out: Bladder Tissue I = Percent inhibition at 30 μM. The method, then:
Sprague-Dawley rats (150-200 g) are rendered unconscious by CO2 asphyxiation and then euthanized by cervical dislocation. The bladder is removed into warm (37° C.) physiological salt solution (PSS) of the following composition (mM): NaCl, 118.4; KCl, 4.7; CaCl2, 2.5; […]; NaHCO3, 24.9; KH2PO4, 1.2; glucose, 11.1; EDTA, 0.023; gassed with 95% O2; […]; pH 7.4. The bladder is opened and then cut into strips 1-2 mm in width and 7-10 mm in length. The strips are subsequently suspended in a 10 mL tissue bath under an initial resting tension of 1.5 g. The strips are held in place by two surgical clips one of which is attached to a fixed hook while the other is attached to an isometric force transducer. […] The carbachol is then washed out and the tissue allowed to relax to its resting level of activity. Following a further 30 min period of recovery an additional 15 mM KCl re introduced into the tissue bath. […] Following stabilization of this enhanced level of contractile activity, incremental increases in the concentration of test compound or vehicle are introduced into the tissue bath. Contractile activity is measured for each compound or vehicle concentration during the last minute of a 30 minute challenge.

In the next data set the test system is Aorta Tissue. Briefly: Relaxation of KCl-contracted isolated rat thoracic aortic rings (contractile force). Details: species or system Sprague-Dawley rats. The settings on record: for IC50: Rattus norvegicus; for Ratio Aorta IC50 / Bladder IC50: aorta IC50 divided by bladder IC50, tissue selectivity. The method, then: The smooth muscle (aorta) relaxing activity of the compounds of this ivention was established in accordance with standard pharmaceutically accepted test procedures with representative compounds as follows.
Male Sprague-Dawley rats (150-200 g) are rendered unconscious by CO2 asphyxiation and then euthanized by cervical dislocation. The thoracic aorta is removed into warm (37° C.) physiological sial solution (PSS) of the following composition (mM): NaCl, 118.4; KCl, 4.7; CaCl2, 2.5; MgSO4.7H2O, 1.2; NaHCO3, 24.9; KH2PO4, 1.2; glucose, 11.1; EDTA, 0.023; gassed with 95% O2/5% CO2; pH 7.4. The aorta is cleaned of fat and loose adventitia and cut into rings 3-4 mm in width. The rings are subsequently suspended between two stainless steel wire tissue holders in a 10 mL tissue bath. One wire tissue holder is attached to a fixed hook while the other is attached to an isometric force transducer. Resting tension is set at 1 g. The tissues are to recover for a period of 60 min prior to beginning the experiment. Tissues are challenged with PSS containing 25 mM KCl to elicit a contracture. The tissues are then washed repeatedly with fresh PSS over a period of 30 min and allowed to recover to baseline tension. PSS containing 30-35 mM KCl is then introduced into the tissue bath to evoke a contracture that is allowed to stabilize for not less than 45 min. (Other stimuli such as norepinephrine, PGF2a, histamine, angiotensin II, endothelin or PSS containing 80 mM KCl may also be used to evoke a contracture as necessary). Increasing concentrations of test compound or vehicle are then added to the tissue bath in a cumulative fashion.
Isometric force development by the aortic rings is measured using a force transducer and recorded on a polygraph. The percentage inhibition of contractile force evoked by each concentration of a given test compound is used to generate a concentration-response curve. […] [Log concentration versus response curves are approximately linear between 20% and 80% of the maximum response. As such, the IC50 concentration of the drug is determined by linear regression analysis (where x=log concentration and y=% inhibition) of the data points in the 20% to 80% region of the curve.] […] Data collected from 2 animals are averaged for primary screens.

[1] abbreviates: rat bladder strips, additional 15 mM KCl, 30 μM test compound.

What is called melting point is the temperature of the solid-liquid transition. By IC50 is commonly meant the concentration that inhibits the measured activity by half. A lower IC50 goes with greater potency. For orientation: inhibition means the percentage by which the read-out fell short of the control.

Turning to `O.O.O=C(O)c1cccc2c1[nH]c1c3cc([N+](=O)[O-])ccc3oc21` (hydrate or solvate) [Example 4, 8-Nitro-10H-benzo[4,5]furo[3,2-b]indole-1-carboxylic acid dihydrate], the melting point was 325 °C (dec.).

As for `N#Cc1cccc2c1[nH]c1c3cc(Br)ccc3oc21.O` (hydrate or solvate) [Example 10, 8-Bromo-10H-benzo[4,5]furo[3,2-b]indole-1-carbonitrile hydrate], the melting point is 277 to 280 °C (dec.).

In turn, `O=C(O)c1cccc2c1[nH]c1c3cc(Br)ccc3oc21` [Example 1, 8-Bromo-10H-benzo[4,5]furo[3,2-b]indole-1-carboxylic acid] gave a melting point of 312 to 313 °C. The same compound gave an IC50 with Bladder Tissue (Rattus norvegicus, 0.5 h) of 15.1 ± 4.7 µM. Besides, in the data set on Aorta Tissue, the IC50 stood at 119 ± 21.8 µM and the “Ratio Aorta IC50 / Bladder IC50” value was determined as 7.9.

On to `O=C(O)c1cccc2c1[nH]c1c3cc(I)ccc3oc21` [Example 2, 8-Iodo-10H-benzo[4,5]furo[3,2-b]indole-1-carboxylic acid], for which the melting point was 297 °C (dec.). Moreover, the IC50 in the data set on Bladder Tissue (Rattus norvegicus, 0.5 h) was 6.1 ± 3 µM. Further, in the data set with Aorta Tissue, half-maximal inhibition (IC50) required 128 ± 16.9 µM and the “Ratio Aorta IC50 / Bladder IC50” value was 21.

For `O=C(O)c1cccc2c1[nH]c1c3cc(Cl)ccc3oc21` [Example 3, 8-Chloro-10H-benzo[4,5]furo[3,2-b]indole-1-carboxylic acid], the melting point was 303 °C (dec.). The compound further gave an IC50 with Bladder Tissue (Rattus norvegicus, 0.5 h) of 5.8 ± 1.5 µM. For the same compound, in the data set with Aorta Tissue, the midpoint of inhibition, the IC50, lay at 268 ± 82.3 µM and the “Ratio Aorta IC50 / Bladder IC50” value stood at 46.2.

In the case of `O.O.O=C(O)c1cccc2c1[nH]c1c3cc([N+](=O)[O-])ccc3oc21` [Example 4, 8-Nitro-10H-benzo[4,5]furo[3,2-b]indole-1-carboxylic acid dihydrate], the IC50 in the data set on Bladder Tissue (Rattus norvegicus, 0.5 h) was found to be 6.3 ± 2.6 µM. Besides, in the data set on Aorta Tissue, the IC50 came to 125 ± 13.8 µM and the “Ratio Aorta IC50 / Bladder IC50” value worked out at 19.8.

The compound `NC(=O)c1cccc2c1[nH]c1c3cc(Br)ccc3oc21` [Example 5, 8-Bromo-10H-benzo[4,5]furo[3,2-b]indole-1-carboxylic acid amide] yielded a melting point of 300 to 301 °C. The inhibition at 30 µM with Bladder Tissue (setting [1]) was determined as 13.5%.

The compound `COC(=O)c1cccc2c1[nH]c1c3cc(Br)ccc3oc21` [Example 6, 8-Bromo-10H-benzo[4,5]furo[3,2-b]indole-1-carboxylic acid methyl ester] came in with a melting point of 204 to 205 °C. The inhibition at 30 µM with Bladder Tissue (setting [1]) is 31%.

`OCc1cccc2c1[nH]c1c3cc(Br)ccc3oc21` [Example 7, (8-Bromo-10H-benzo[4,5]furo[3,2-b]indol-1-yl)-methanol] came in with a melting point of 218 to 219 °C.

For the compound `CN(O)C(=O)c1cccc2c1[nH]c1c3cc(Br)ccc3oc21` [Example 8, 8-Bromo-10H-benzo[4,5]furo[3,2-b]indole-1-carboxylic acid hydroxy-methyl amide], the melting point lay in the range of 174 to 175 °C. Besides, inhibition in the data set on Bladder Tissue (Rattus norvegicus, 0.5 h) was half-maximal at 19.8 ± 4.02 µM (IC50). Further, in the data set with Aorta Tissue, 8.1 ± 3.6 µM corresponded to half-maximal inhibition (IC50) and the “Ratio Aorta IC50 / Bladder IC50” value came to 0.41.

For `O=Cc1cccc2c1[nH]c1c3cc(Br)ccc3oc21` [Example 9, 8-Bromo-10H-benzo[4,5]furo[3,2-b]indole-1-carbaldehyde], the melting point was in the range of 280 to 281 °C. The inhibition at 30 µM with Bladder Tissue (setting [1]) is 19%.

As to `N#Cc1cccc2c1[nH]c1c3cc(Br)ccc3oc21` [Example 10, 8-Bromo-10H-benzo[4,5]furo[3,2-b]indole-1-carbonitrile hydrate], the inhibition at 30 µM in the data set on Bladder Tissue (setting [1]) amounted to 10.1%.

With `Brc1ccc2oc3c4cccc(-c5nnn[nH]5)c4[nH]c3c2c1` [Example 11, 8-Bromo-1-(1H-tetrazol-5-yl)-10H-benzo[4,5]furo[3,2-b]indole], the melting point was 275 to 277 °C (dec.). The inhibition at 30 µM with Bladder Tissue (setting [1]) was found to be 30.9%.

As to `CC(NC(=O)c1cccc2c1[nH]c1c3cc(Br)ccc3oc21)C(C)(C)C` (centres unmarked) [Example 12, 8-Bromo-10H-benzo[4,5]furo[3,2-b]indole-1-carboxylic acid (1,2,2-trimethyl-propyl)-amide], the melting point fell in the range of 173 to 175 °C. Further, in the data set with Bladder Tissue (Rattus norvegicus, 0.5 h), the IC50 was 13.9 ± 0.95 µM. In the data set with Aorta Tissue, the IC50 came to 25 ± 3.9 µM and the “Ratio Aorta IC50 / Bladder IC50” value was determined as 1.8.

In the case of `CCC(C)(C)NC(=O)c1cccc2c1[nH]c1c3cc(Br)ccc3oc21` [Example 13, 8-Bromo-10H-benzo[4,5]furo[3,2-b]indole-1-carboxylic acid (1,1-dimethyl-propyl)-amide], the melting point was 242 to 244 °C (dec.). Also, the inhibition at 30 µM in the data set on Bladder Tissue (setting [1]) came out at 28.5%.

For `CNC(=O)c1cccc2c1[nH]c1c3cc(Br)ccc3oc21` [Example 14, 8-Bromo-10H-benzo[4,5]furo[3,2-b]indole-1-carboxylic acid methylamide], the melting point is 264 to 265 °C (dec.). Moreover, the inhibition at 30 µM in the data set with Bladder Tissue (setting [1]) is 4.8%.

In turn, `COC(=O)c1cccc2c3oc4ccc(Br)cc4c3n(C)c12` [Example 15, 8-Bromo-10-methyl-10H-benzo[4,5]furo[3,2-b]indole-1-carboxylic acid methyl ester] had a melting point of 195 to 196 °C. Besides, the inhibition at 30 µM with Bladder Tissue (setting [1]) turned out to be 4.5%.

In the case of `O=C(O)c1cccc2c1[nH]c1c3ccccc3oc21` [Example 16, 10H-Benzo[4,5]furo[3,2-b]indole-1-carboxylic acid], the melting point is 279 to 280 °C (dec.). For the same compound, the IC50 in the data set with Bladder Tissue (Rattus norvegicus, 0.5 h) came out at 31 ± 6.5 µM.

Compound `O=C(O)c1cccc2c1Cc1c-2[nH]c2ccc(I)cc12` [Example 17, 8-Iodo-5,10-dihydro-indeno[1,2-b]indole-1-carboxylic acid 0.6 hydrate] came in with an IC50 in the data set on Bladder Tissue (rat bladder strips, additional 15 mM KCl, 50% inhibition of pre-drug contractile activity, 30 minute challenge) of 10.1 ± 3.2 µM.

Consider `NS(=O)(=O)c1ccc2[nH]c3c(c2c1)Cc1c(C(=O)O)cccc1-3.NS(=O)(=O)c1ccc2[nH]c3c(c2c1)Cc1c(C(=O)O)cccc1-3.O` [Example 18, 8-Sulfamoyl-5,10-dihydro-indeno[1,2-b]indole-1-carboxylic acid hemi-hydrate], for which the “Bladder Tissue I = Percent inhibition at 30 μM” value in the data set on Bladder Tissue (setting [1]) was “I = 5.2%*”.

For the compound `O=C(O)c1cccc2c1Cc1c-2[nH]c2ccc(F)cc12` [Example 19, 8-Fluoro-5,10-dihydro-indeno[1,2-b]indole-1-carboxylic acid], the melting point was above 300 °C. Also, in the data set with Bladder Tissue (Rattus norvegicus, 0.5 h), the IC50 was found to be 12.5 ± 5 µM. In the data set on Aorta Tissue, the IC50 worked out at 46.6 ± 18.7 µM and the “Ratio Aorta IC50 / Bladder IC50” value amounted to 3.74.

In the case of `O=C(O)c1cccc2c1Cc1c-2[nH]c2ccc(Cl)cc12` [Example 20, 8-Chloro-5,10-dihydro-indeno[1,2-b]indole-1-carboxylic acid], the melting point was above 300 °C. Moreover, inhibition with Bladder Tissue (Rattus norvegicus, 0.5 h) was half-maximal at 22.6 ± 1.8 µM (IC50).

Regarding `O=C(O)c1cccc2c1Cc1c-2[nH]c2ccc(OC(F)(F)F)cc12` [Example 21, 8-Trifluoromethoxy-5,10-dihydro-indeno[1,2-b]indole-1-carboxylic acid], the melting point was 256 to 265 °C (dec.). This compound also had an IC50 in the data set on Bladder Tissue (Rattus norvegicus, 0.5 h) of 15.4 ± 4.8 µM.

`CCOC(=O)c1cccc2c1Cc1c-2[nH]c2ccc(Cl)cc12` [Example 22, 8-Chloro-5,10-dihydro-indeno[1,2-b]indole-1-carboxylic acid ethyl ester]: the melting point lay within 202 to 204 °C. The inhibition at 30 µM in the data set on Bladder Tissue (setting [1]) was 8%.

With `CCOC(=O)c1cccc2c1Cc1c-2[nH]c2ccc(Br)cc12` [Example 23, 8-Bromo-5,10-dihydro-indeno[1,2-b]indole-1-carboxylic acid ethyl ester], the melting point fell in the range of 198 to 200 °C. Also, the inhibition at 30 µM in the data set with Bladder Tissue (setting [1]) was determined as 20%.

`O=C(O)c1cccc2c3c([nH]c12)-c1cc(Br)ccc1C3` [Example 26, 3-Bromo-5,10-dihydro-indeno[1,2-b]indole-6-carboxylic acid]: the melting point was 245 to 247 °C (dec.). Moreover, the 50% inhibitory concentration (IC50) in the data set on Aorta Tissue came to 210 ± 45 µM.
